Test results: ChEMBL document CHEMBL1201862, “PubChem BioAssay data set” (2004)
Calls of active or inactive are those of the source.

Columns and labels:
[1] = target: Low molecular weight phosphotyrosine protein phosphatase (Homo sapiens, UniProt P24666); type: functional; settings: read-out: IC50_Mean;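 also: Dose-response confirmation assay measuring inhibition of LMPTP enzyme activity by fluorescence intensity read-out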
[2] = target: T1, Carboxy-terminal domain RNA polymerase II polypeptide A small phosphatase 1 (Homo sapiens, UniProt Q9GZU7); test: inhibitors of CTDSP1, concentration-response testing, biochemical assay, absorbance-based, actives from ultra-high-throughput screening (AID 540297); type: functional
T1 sequence (Q9GZU7 whole entry): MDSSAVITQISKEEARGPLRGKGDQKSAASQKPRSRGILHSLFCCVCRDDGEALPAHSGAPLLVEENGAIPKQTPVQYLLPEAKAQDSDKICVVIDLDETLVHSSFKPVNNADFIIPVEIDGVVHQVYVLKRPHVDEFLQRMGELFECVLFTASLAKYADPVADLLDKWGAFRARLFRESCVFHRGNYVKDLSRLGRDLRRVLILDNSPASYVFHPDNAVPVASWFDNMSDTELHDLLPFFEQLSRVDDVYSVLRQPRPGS

[3] = target: T2, Tyrosine-protein phosphatase non-receptor type 22 (Homo sapiens, UniProt Q9Y2R2); test: LYP phosphatase inhibition for selectivity, dose response, selectivity assay for LMPTP inhibitor project, biochemical, fluorescence, LYP catalytic domain (AID 652006); type: functional; settings: read-out: IC50_Mean
T2 sequence (Q9Y2R2 whole entry): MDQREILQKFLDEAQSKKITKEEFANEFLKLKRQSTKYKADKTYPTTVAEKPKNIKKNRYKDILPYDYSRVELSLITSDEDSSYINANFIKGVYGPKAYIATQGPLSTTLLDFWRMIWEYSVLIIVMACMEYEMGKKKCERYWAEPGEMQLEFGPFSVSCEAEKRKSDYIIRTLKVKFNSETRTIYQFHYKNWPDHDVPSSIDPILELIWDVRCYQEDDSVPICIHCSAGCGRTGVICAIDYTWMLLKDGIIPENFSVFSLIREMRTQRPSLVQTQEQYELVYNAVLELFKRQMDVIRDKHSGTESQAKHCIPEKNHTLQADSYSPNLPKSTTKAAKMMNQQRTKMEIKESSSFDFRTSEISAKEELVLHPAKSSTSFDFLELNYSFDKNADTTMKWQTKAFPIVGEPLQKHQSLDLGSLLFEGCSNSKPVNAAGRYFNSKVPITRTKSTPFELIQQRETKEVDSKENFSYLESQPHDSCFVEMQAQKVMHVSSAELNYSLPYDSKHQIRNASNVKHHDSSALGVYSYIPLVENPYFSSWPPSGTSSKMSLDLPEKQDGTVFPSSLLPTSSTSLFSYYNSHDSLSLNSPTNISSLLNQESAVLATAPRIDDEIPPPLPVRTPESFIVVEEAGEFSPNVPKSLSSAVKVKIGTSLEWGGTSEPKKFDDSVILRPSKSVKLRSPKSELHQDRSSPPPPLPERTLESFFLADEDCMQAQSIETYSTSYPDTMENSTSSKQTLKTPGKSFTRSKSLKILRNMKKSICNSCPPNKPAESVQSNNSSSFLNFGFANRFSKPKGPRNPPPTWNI

[4] = target: T3, Corticotropin-releasing factor receptor 2/Corticotropin-releasing factor-binding protein (Homo sapiens, UniProt P24387+Q13324); test: Dose Response confirmation of uHTS hits for small molecule antagonists of the CRF-binding protein and CRF-R2 receptor complex.; type: functional; settings: read-out: IC50_Mean
T3 sequence (Q13324 whole entry): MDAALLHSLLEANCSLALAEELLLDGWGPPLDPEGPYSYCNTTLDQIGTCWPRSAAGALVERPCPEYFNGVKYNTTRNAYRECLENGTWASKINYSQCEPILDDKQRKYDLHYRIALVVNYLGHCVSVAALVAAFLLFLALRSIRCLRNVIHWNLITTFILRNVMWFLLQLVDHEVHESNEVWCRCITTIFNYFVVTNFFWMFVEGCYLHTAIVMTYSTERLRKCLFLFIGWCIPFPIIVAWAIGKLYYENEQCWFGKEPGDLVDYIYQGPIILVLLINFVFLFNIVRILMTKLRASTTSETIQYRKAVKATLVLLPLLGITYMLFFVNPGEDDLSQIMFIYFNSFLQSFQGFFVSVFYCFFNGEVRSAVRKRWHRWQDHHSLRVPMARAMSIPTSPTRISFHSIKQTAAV
T3 sequence (P24387 whole entry): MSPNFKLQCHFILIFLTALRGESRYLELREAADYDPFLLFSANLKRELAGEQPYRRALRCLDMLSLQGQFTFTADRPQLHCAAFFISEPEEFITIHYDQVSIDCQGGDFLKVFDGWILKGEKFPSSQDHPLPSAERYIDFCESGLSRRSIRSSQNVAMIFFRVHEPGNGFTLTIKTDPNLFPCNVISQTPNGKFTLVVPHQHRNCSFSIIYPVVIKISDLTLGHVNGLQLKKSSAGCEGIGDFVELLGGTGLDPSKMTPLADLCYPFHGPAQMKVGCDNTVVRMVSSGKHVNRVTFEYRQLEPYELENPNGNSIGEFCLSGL

[5] = CRF-BP/CRF-R2 complex antagonists, dose response, cell-based, uHTS hits, 384-well (AID 651639); type: functional, Homo sapiens; settings: read-out: IC50_Mean
[6] = target: T3, Corticotropin-releasing factor receptor 2/Corticotropin-releasing factor-binding protein; test: activators of CRF receptor 2 with binding protein – uHTS hits, confirmation (AID 602473); type: functional; settings: read-out: EC50_Mean

Low molecular weight phosphotyrosine protein phosphatase, sequence (P24666 whole entry, the tested form may be a part): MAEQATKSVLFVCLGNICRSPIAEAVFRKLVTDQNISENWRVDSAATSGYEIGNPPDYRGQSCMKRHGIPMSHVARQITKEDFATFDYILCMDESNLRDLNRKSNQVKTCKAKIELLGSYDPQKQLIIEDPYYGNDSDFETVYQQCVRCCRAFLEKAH

SMILES	IC50 [1]	IC50 [2]	IC50 [3]	IC50 [4]	IC50 [5]	EC50 [6]
NC(=O)Cc1ccc(C(=O)CSc2nnc(-c3ccncc3)n2C2CC2)s1	21 µM (inactive)	4.44 µM (active)	55.6 µM (inactive)			
COCCN=C(S)N1CCc2cc(OC)c(OC)cc2C1COc1cc(C)cc(C)c1 (stereo unspecified)				32.1 µM (active)	> 20 µM (inactive)	> 53 µM (inactive)
